How the values were obtained:
Format in all cases: in vivo
[1] = test system: ducksalad (Heteranthera limosa); assay: Test B flooded paddy test, plant response rating 0-100; settings: Flood, 250 g ai/ha; scale 0 to 100 (0 no effect, 100 complete control); 13 to 15 days
Source text: (§1) At time of treatment, test pots were flooded to 3 cm above the soil surface, treated by application of test compounds directly to the paddy water, and then maintained at that water depth for the duration of the test. Treated plants and controls were maintained in a greenhouse for 13 to 15 days, after which time all species were compared to controls and visually evaluated. […] A dash (-) response means no test result.

rice (Oryza sativa) = assay: as above; settings: Flood, 250 g ai/ha; scale 0 to 100 (0 no effect, 100 complete control); 13 to 15 days
Source text: as §1

[2] = test system: sedge, umbrella (small-flower umbrella sedge, Cyperus difformis); assay: as above; settings: Flood, 250 g ai/ha; scale 0 to 100 (0 no effect, 100 complete control); 13 to 15 days
Source text: as §1

[3] = test system: wheat (Triticum aestivum); assay: Test A pre-/postemergence greenhouse herbicide test, visual injury rating 0-100
Source text: (§2) Seeds of plant species selected from barnyardgrass (Echinochloa crus-galli), large (Lg) crabgrass (Digitaria sanguinalis), giant foxtail (Setaria faberii), morningglory (Ipomoea spp.), pigweed (Amaranthus retroflexus), velvetleaf (Abutilon theophrasti), wheat (Triticum aestivum), and corn (Zea mays) were planted into a blend of loam soil and sand and treated preemergence with a directed soil spray using test chemicals formulated in a non-phytotoxic solvent mixture which included a surfactant. At the same time these species were also treated with postemergence applications of test chemicals formulated in the same manner. Plants ranged in height from 2 to 10 cm and were in the one- to two-leaf stage for the postemergence treatment. Treated plants and untreated controls were maintained in a greenhouse for approximately 10 days, after which time all treated plants were compared to untreated controls and visually evaluated for injury. Plant response ratings, summarized in Table A, are based on a 0 to 100 scale where 0 is no effect and 100 is complete control. A dash (-) response means no test result.

[4] = test system: velvetleaf (Abutilon theophrasti); assay: as above
Source text: as §2

[5] = test system: giant foxtail (Setaria faberii); assay: as above
Source text: as §2

[6] = test system: morningglory (Ipomoea spp.); assay: as above
Source text: as §2

[7] = test system: pigweed (Amaranthus retroflexus); assay: as above
Source text: as §2

[8] = test system: large (Lg) crabgrass (Digitaria sanguinalis); assay: as above
Source text: as §2

corn (Zea mays) = assay: as above
Source text: as §2

[9] = test system: barnyardgrass (Echinochloa crus-galli); assay: as above
Source text: as §2

Cn1cc(C(=O)c2ccccc2)c(-c2cc(Cl)c(Cl)c(Cl)c2)n1 [Compound 11]
90: Plant response rating (0 to 100 scale), Pigweed ([7]; Postemergence, 1000 g ai/ha) | Plant response rating (0 to 100 scale), Pigweed ([7]; Preemergence, 1000 g ai/ha)
80: Plant response rating (0 to 100 scale), Velvetleaf ([4]; Postemergence, 1000 g ai/ha)
0: Plant response rating, Ducksalad [1] | Plant response rating, Rice (rice (Oryza sativa)) | Plant response rating, Sedge, Umbrella [2] | Plant response rating (0 to 100 scale), Wheat ([3]; Postemergence, 1000 g ai/ha) | Plant response rating (0 to 100 scale), Wheat ([3]; Preemergence, 1000 g ai/ha) | Plant response rating (0 to 100 scale), Foxtail, Giant ([5]; Postemergence, 1000 g ai/ha) | Plant response rating (0 to 100 scale), Foxtail, Giant ([5]; Preemergence, 1000 g ai/ha) | Plant response rating (0 to 100 scale), Morningglory ([6]; Postemergence, 1000 g ai/ha) | Plant response rating (0 to 100 scale), Morningglory ([6]; Preemergence, 1000 g ai/ha) | Plant response rating (0 to 100 scale), Crabgrass, Large ([8]; Postemergence, 1000 g ai/ha) | Plant response rating (0 to 100 scale), Crabgrass, Large ([8]; Preemergence, 1000 g ai/ha) | Plant response rating (0 to 100 scale), Corn (corn (Zea mays); Postemergence, 1000 g ai/ha) | Plant response rating (0 to 100 scale), Corn (corn (Zea mays); Preemergence, 1000 g ai/ha) | Plant response rating (0 to 100 scale), Barnyardgrass ([9]; Postemergence, 1000 g ai/ha) | Plant response rating (0 to 100 scale), Barnyardgrass ([9]; Preemergence, 1000 g ai/ha)
70: Plant response rating (0 to 100 scale), Velvetleaf ([4]; Preemergence, 1000 g ai/ha)

CCn1cc(C(=O)c2ccccc2)c(-c2cc(Cl)c(Cl)c(Cl)c2)n1 [Compound 12]
70: Plant response rating, Sedge, Umbrella [2] | Plant response rating (0 to 100 scale), Velvetleaf ([4]; Preemergence, 1000 g ai/ha)
90: Plant response rating (0 to 100 scale), Pigweed ([7]; Postemergence, 1000 g ai/ha)
0: Plant response rating, Rice (rice (Oryza sativa)) | Plant response rating (0 to 100 scale), Wheat ([3]; Postemergence, 1000 g ai/ha) | Plant response rating (0 to 100 scale), Wheat ([3]; Preemergence, 1000 g ai/ha) | Plant response rating (0 to 100 scale), Foxtail, Giant ([5]; Postemergence, 1000 g ai/ha) | Plant response rating (0 to 100 scale), Foxtail, Giant ([5]; Preemergence, 1000 g ai/ha) | Plant response rating (0 to 100 scale), Morningglory ([6]; Postemergence, 1000 g ai/ha) | Plant response rating (0 to 100 scale), Morningglory ([6]; Preemergence, 1000 g ai/ha) | Plant response rating (0 to 100 scale), Crabgrass, Large ([8]; Postemergence, 1000 g ai/ha) | Plant response rating (0 to 100 scale), Crabgrass, Large ([8]; Preemergence, 1000 g ai/ha) | Plant response rating (0 to 100 scale), Corn (corn (Zea mays); Postemergence, 1000 g ai/ha) | Plant response rating (0 to 100 scale), Corn (corn (Zea mays); Preemergence, 1000 g ai/ha) | Plant response rating (0 to 100 scale), Barnyardgrass ([9]; Postemergence, 1000 g ai/ha) | Plant response rating (0 to 100 scale), Barnyardgrass ([9]; Preemergence, 1000 g ai/ha)
20: Plant response rating, Ducksalad [1]
80: Plant response rating (0 to 100 scale), Velvetleaf ([4]; Postemergence, 1000 g ai/ha) | Plant response rating (0 to 100 scale), Pigweed ([7]; Preemergence, 1000 g ai/ha)

FC(F)(F)Cn1cc(C(=NNc2ccccc2)c2ccccc2)c(-c2cc(Cl)cc(Cl)c2)n1 [Compound 34]
20: Plant response rating (0 to 100 scale), Pigweed ([7]; Postemergence, 500 g ai/ha)
10: Plant response rating (0 to 100 scale), Velvetleaf ([4]; Postemergence, 125 g ai/ha)
0: Plant response rating (0 to 100 scale), Wheat ([3]; Postemergence, 125 g ai/ha) | Plant response rating (0 to 100 scale), Wheat ([3]; Postemergence, 500 g ai/ha) | Wheat plant response rating (0 = no effect, 100 = complete control) ([3]; Preemergence, 125 g ai/ha) | Plant response rating (0 to 100 scale), Wheat ([3]; Preemergence, 500 g ai/ha) | Velvetleaf plant response rating (0 = no effect, 100 = complete control) ([4]; Preemergence, 125 g ai/ha) | Plant response rating (0 to 100 scale), Velvetleaf ([4]; Preemergence, 500 g ai/ha) | Plant response rating (0 to 100 scale), Foxtail, Giant ([5]; Postemergence, 125 g ai/ha) | Plant response rating (0 to 100 scale), Foxtail, Giant ([5]; Postemergence, 500 g ai/ha) | Foxtail, Giant plant response rating (0 = no effect, 100 = complete control) ([5]; Preemergence, 125 g ai/ha) | Plant response rating (0 to 100 scale), Foxtail, Giant ([5]; Preemergence, 500 g ai/ha) | Plant response rating (0 to 100 scale), Morningglory ([6]; Postemergence, 125 g ai/ha) | Plant response rating (0 to 100 scale), Morningglory ([6]; Postemergence, 500 g ai/ha) | Morningglory plant response rating (0 = no effect, 100 = complete control) ([6]; Preemergence, 125 g ai/ha) | Plant response rating (0 to 100 scale), Morningglory ([6]; Preemergence, 500 g ai/ha) | Plant response rating (0 to 100 scale), Pigweed ([7]; Postemergence, 125 g ai/ha) | Pigweed plant response rating (0 = no effect, 100 = complete control) ([7]; Preemergence, 125 g ai/ha) | Plant response rating (0 to 100 scale), Pigweed ([7]; Preemergence, 500 g ai/ha) | Plant response rating (0 to 100 scale), Crabgrass, Large ([8]; Postemergence, 125 g ai/ha) | Plant response rating (0 to 100 scale), Crabgrass, Large ([8]; Postemergence, 500 g ai/ha) | Crabgrass, Large plant response rating (0 = no effect, 100 = complete control) ([8]; Preemergence, 125 g ai/ha) | Plant response rating (0 to 100 scale), Crabgrass, Large ([8]; Preemergence, 500 g ai/ha) | Plant response rating (0 to 100 scale), Corn (corn (Zea mays); Postemergence, 125 g ai/ha) | Plant response rating (0 to 100 scale), Corn (corn (Zea mays); Postemergence, 500 g ai/ha) | Corn plant response rating (0 = no effect, 100 = complete control) (corn (Zea mays); Preemergence, 125 g ai/ha) | Plant response rating (0 to 100 scale), Corn (corn (Zea mays); Preemergence, 500 g ai/ha) | Plant response rating (0 to 100 scale), Barnyardgrass ([9]; Postemergence, 125 g ai/ha) | Plant response rating (0 to 100 scale), Barnyardgrass ([9]; Postemergence, 500 g ai/ha) | Barnyardgrass plant response rating (0 = no effect, 100 = complete control) ([9]; Preemergence, 125 g ai/ha) | Plant response rating (0 to 100 scale), Barnyardgrass ([9]; Preemergence, 500 g ai/ha)
30: Plant response rating (0 to 100 scale), Velvetleaf ([4]; Postemergence, 500 g ai/ha)
